Experimental data reported in US8642588B2, “Short-acting benzodiazepine salts and their polymorphic forms” (priority 2006, dated 2014).
Converted amounts (≈) assume the structure as drawn. Like-named read-outs stand apart in the source and are kept apart here.

Columns and labels:
Type in all cases: physicochemical
Solubility in water = details: thermodynamic from solid, 25° C., maximum 10 mg/ml of parent free form
Experimental: This was measured by suspending enough compound in 0.25 ml of solvent (water) to give a maximum final concentration of 10 mg/ml of the parent free form of the compound. The suspension was equilibrated at 25° C. for 24 hrs followed by a pH check and filtration through a glass fibre C 96 well plate. The filtrate is then diluted down 101×. Quantitation was by HPLC with reference to a standard dissolved in DMSO at approx 0.1 mg/ml. Different volumes of the standard, diluted and undiluted tests were injected. The solubility was calculated by integration of the peak area found at the same retention time as the peak maximum in the standard injection. If there is sufficient solid in the filter plate the XRPD is normally checked for phase changes, hydrate formation, amorphization, crystallization etc.

[1] = Solid-state stability study of compound of formula (I) (appearance, HPLC content); details: 34 days
Experimental: Method/Technique. 2 mg samples of compound of formula (I), accurately weighed, were placed in 4-mL clear glass screw-cap vials. Samples were tested at initial and after 34 days stored at 5° C./Ambient Relative Humidity (AMRH) Closed, 30° C./60% RH Closed, 40° C./75% RH Open and 60° C./AMRH Closed.
Samples were inspected visually for appearance. Compound of formula (I) content values were determined by the HPLC method in Table 1. The % weight/weight (% w/w) values were measured relative to standard samples of compound of formula (I) Batch U12438/79/1. The % area values were obtained by dividing the compound of formula (I) peak area by the total peak area.

[2] = Solubility in organic solvents; details: organic solvent or mixture, read-out: Min solvent required (solubility)
Experimental: The solubility of the compound of formula (I) was determined in a wide range of organic solvents.

[3] = pKa determination (potentiometric titration, Sirius GlpKa); details: MeOH:H2O mixtures, extrapolated to 0% co-solvent, free base
Experimental: Two basic centres of the free base of the compound were measured for pKa. […] The pKa of the basic centre of the imidazole ring was measured to be 4.53.
pka determination was performed on a Sirius GlpKa instrument with D-PAS attachment. Measurements were made by potentiometric titration in MeOH:H2O mixtures at 25° C. The titration media was ionic strength adjusted with 0.15M KCl. The values found in the MeOH:H2O mixtures were extrapolated to 0% co-solvent via a Yasuda-Shedlovsky extrapolation.

COC(=O)CC[C@@H]1N=C(c2ccccn2)c2cc(Br)ccc2-n2c(C)cnc21 [LJC-039-034-1]
solubility at 24 h (Solubility in water): 7.8 mg/mL (≈ 17.8 mM)

COC(=O)CC[C@@H]1N=C(c2ccccn2)c2cc(Br)ccc2-n2c(C)cnc21 [compound of formula (I), Methyl 3-[(4S)-8-bromo-1-methyl-6-(2-pyridinyl)-4H-imidazol[1,2-a][1,4]benzodiazepin-4-yl]propanoate]
Appearance ([1]; 40 C./75% RH Open): Deliquesced yellow mass on bottom | Appearance ([1]; 60 C./AMRH Closed): Deliquesced dark yellow to orange | solubility ([2]; acetone): 214 mg/mL | solubility ([2]; acetonitrile): 362 mg/mL | solubility ([2]; ethanol): 324 mg/mL | solubility ([2]; ethyl acetate): 218 mg/mL | solubility ([2]; methanol): 446 mg/mL | solubility ([2]; propan-2-ol): 454 mg/mL | solubility ([2]; tetrahydrofuran): 311 mg/mL | solubility ([2]; toluene): 460 mg/mL | pKa ([3]; basic centre of the imidazole ring): 4.53 | pKa ([3]; basic centre of the pyridine ring): 1.99
